In US8791107B2, “N-substituted oxazinopteridines and oxazinopteridinones” (Takeda Pharmaceutical Company Limited, priority 2011, dated 2014):

Target: T1, PI3Kδ (Homo sapiens, UniProt O00329)
T1 construct: The protein is full length and co-expressed with untagged PIK3R1; GST; purchased Invitrogen PV5274
Assay: PI3Kδ inhibition, modified PIK3CD Adapta TR-FRET assay
Assay type: biochemical
Settings: recombinant GST-tagged full length PIK3CD co-expressed with PIK3R1 (p85α); 2 μM ATP, 50 μM PIP2
Procedure, shortened: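 Full-length GST-PIK3CD co-expressed with p85α was run in 50 mM HEPES pH 7.5, 3 mM MgCl2, 1 mM EGTA, 100 mM NaCl, 0.03% CHAPS, 2 mM DTT, 1% DMSO, with 12-point compound titrations. Reactions at room temperature were started with solution containing 2 μM ATP and 50 μM PIP2. ADP was detected by Adapta TR-FRET (620 nm-ratioed).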

T1 sequence (O00329 whole entry): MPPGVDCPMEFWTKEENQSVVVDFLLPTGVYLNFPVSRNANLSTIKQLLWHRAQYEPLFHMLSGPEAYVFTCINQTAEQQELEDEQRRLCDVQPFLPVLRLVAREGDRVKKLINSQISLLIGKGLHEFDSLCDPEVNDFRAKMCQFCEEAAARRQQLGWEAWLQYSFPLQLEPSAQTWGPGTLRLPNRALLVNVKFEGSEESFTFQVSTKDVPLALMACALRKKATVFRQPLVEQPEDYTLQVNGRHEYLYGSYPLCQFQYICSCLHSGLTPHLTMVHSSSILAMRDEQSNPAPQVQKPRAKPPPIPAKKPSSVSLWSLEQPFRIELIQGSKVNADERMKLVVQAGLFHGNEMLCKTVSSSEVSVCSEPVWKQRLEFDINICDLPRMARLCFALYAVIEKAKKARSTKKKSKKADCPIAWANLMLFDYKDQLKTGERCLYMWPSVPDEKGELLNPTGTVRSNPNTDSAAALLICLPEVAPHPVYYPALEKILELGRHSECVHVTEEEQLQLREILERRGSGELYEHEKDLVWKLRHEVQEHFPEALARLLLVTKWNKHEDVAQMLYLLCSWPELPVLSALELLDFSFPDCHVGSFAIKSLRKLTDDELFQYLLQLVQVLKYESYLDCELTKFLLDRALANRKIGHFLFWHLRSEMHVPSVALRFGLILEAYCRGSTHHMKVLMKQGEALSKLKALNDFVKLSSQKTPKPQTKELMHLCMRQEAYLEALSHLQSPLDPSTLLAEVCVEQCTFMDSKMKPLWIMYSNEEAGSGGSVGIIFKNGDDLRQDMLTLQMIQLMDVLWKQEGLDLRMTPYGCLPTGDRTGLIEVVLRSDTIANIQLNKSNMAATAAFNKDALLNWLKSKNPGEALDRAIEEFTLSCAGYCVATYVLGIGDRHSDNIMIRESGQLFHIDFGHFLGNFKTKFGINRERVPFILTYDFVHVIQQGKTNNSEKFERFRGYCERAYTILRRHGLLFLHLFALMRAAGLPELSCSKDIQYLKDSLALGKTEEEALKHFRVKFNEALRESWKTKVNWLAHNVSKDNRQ
T1 sequence (P27986 whole entry partner): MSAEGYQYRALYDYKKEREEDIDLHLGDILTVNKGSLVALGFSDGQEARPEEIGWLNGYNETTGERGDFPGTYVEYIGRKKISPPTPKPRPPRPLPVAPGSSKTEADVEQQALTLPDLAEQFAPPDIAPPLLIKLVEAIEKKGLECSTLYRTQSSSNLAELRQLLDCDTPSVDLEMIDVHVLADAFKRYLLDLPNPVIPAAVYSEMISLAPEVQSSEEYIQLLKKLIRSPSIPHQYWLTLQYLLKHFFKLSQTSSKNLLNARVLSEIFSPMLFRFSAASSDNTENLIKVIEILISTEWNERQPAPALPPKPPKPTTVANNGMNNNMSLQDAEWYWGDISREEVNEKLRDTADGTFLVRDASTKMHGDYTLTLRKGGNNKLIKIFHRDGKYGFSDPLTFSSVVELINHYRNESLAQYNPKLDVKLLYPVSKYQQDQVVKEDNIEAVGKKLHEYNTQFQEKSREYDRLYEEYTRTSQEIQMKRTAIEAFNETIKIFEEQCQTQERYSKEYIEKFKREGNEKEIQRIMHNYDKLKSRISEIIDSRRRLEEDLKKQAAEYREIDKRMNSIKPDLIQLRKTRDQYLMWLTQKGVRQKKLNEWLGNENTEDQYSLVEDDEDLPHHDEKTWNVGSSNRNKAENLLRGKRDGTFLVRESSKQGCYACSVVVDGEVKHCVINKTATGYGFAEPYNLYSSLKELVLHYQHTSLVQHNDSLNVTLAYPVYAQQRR

SMILES	PI3Kδ Inhibition (pIC50)
Cc1ccc([C@H](C)N2C(=O)[C@H]3COCCN3c3nc(-c4cccc5[nH]ccc45)ncc32)cc1 [Example 154, (R)-2-(1H-indol-4-yl)-5-((5)-1-p-tolylethyl)-6a,7,9,10-tetrahydro-[1,4]oxazino[3,4-h]pteridin-6(5H)-one]	6.9

Same assay, conditions: recombinant GST-tagged full length PIK3CD co-expressed with PIK3R1 (p85α); 2 μM ATP, 50 μM PIP2; read-out: PI3Kδ Inhibition (pIC50) (converted)

SMILES	IC50 [nM]
O=C(CN1C[C@@H]2COCCN2c2nc(-n3c(C(F)F)nc4ccccc43)ncc21)NCC1CCOCC1 [Example 211, (R)-2-(2-(2-(difluoromethyl)-1H-benzo[d]imidazol-1-yl)-6a,7,9,10-tetrahydro-[1,4]oxazino[3,4-h]pteridin-5(6H)-yl)-N-((tetrahydro-2H-pyran-4-yl)methyl)acetamide]	20
CNC(=O)Nc1ccc(-c2ncc3c(n2)N2CCOCC2CN3CC2CC2)cc1 (stereo not shown) [Example 64, 1-(4-(5-(cyclopropylmethyl)-5,6,6a,7,9,10-hexahydro-[1,4]oxazino[3,4-h]pteridin-2-yl)phenyl)-3-methylurea]	39.8
CCc1nnc(C(C)N2C[C@@H]3COCCN3c3nc(-c4cccc5[nH]ccc45)ncc32)o1 (stereo partly drawn) [Example 178, (6aR)-5-(1-(5-ethyl-1,3,4-oxadiazol-2-yl)ethyl)-2-(1H-indol-4-yl)-5,6,6a,7,9,10-hexahydro-[1,4]oxazino[3,4-h]pteridine]	1.58
CNC(=O)Nc1ccc(-c2ncc3c(n2)N2CCOC[C@@H]2C(=O)N3C2CCOCC2)cc1 [Example 159, (R)-1-methyl-3-(4-(6-oxo-5-(tetrahydro-2H-pyran-4-yl)-5,6,6a,7,9,10-hexahydro-[1,4]oxazino[3,4-h]pteridin-2-yl)phenyl)urea]	2.51
CC(C)(O)CCN1C[C@@H]2COCCN2c2nc(-c3cccc4[nH]ccc34)ncc21 [Example 169, (R)-4-(2-(1H-indol-4-yl)-6a,7,9,10-tetrahydro-[1,4]oxazino[3,4-h]pteridin-5(6H)-yl)-2-methylbutan-2-ol]	7.94
CS(=O)(=O)c1ccc(CN2C[C@@H]3COCCN3c3nc(-n4c(C(F)F)nc5ccccc54)ncc32)cc1 [Example 67, (R)-2-(2-(difluoromethyl)-1H-benzo[d]imidazol-1-yl)-5-(4-(methylsulfonyl)benzyl)-5,6,6a,7,9,10-hexahydro-[1,4]oxazino[3,4-h]pteridine]	5.01
Cc1n[nH]cc1-c1ncc2c(n1)N1CCOCC1C(=O)N2Cc1ccc(S(C)(=O)=O)cc1 (stereo not shown) [Example 130]	126
N#Cc1ccccc1N1C[C@@H]2COCCN2c2nc(-c3cccc4[nH]ccc34)ncc21 [Example 186, (R)-2-(2-(1H-indol-4-yl)-6a,7,9,10-tetrahydro-[1,4]oxazino[3,4-h]pteridin-5(6H)-yl)benzonitrile]	50.1
c1ccc(OCCN2CC3COCCN3c3nc(-c4cccc5[nH]ccc45)ncc32)cc1 (stereo not shown) [Example 32, 2-(1H-indol-4-yl)-5-(2-phenoxyethyl)-5,6,6a,7,9,10-hexahydro-[1,4]oxazino[3,4-h]pteridine]	79.4
CS(=O)(=O)c1ccc(CN2CC3COCCN3c3nc(-c4cccc5[nH]ncc45)ncc32)cc1 (stereo not shown) [Example 22, 2-(1H-indazol-4-yl)-5-(4-(methylsulfonyl)benzyl)-5,6,6a,7,9,10-hexahydro-[1,4]oxazino[3,4-h]pteridine]	20
CC(=O)Nc1cccc(-c2ncc3c(n2)N2CCOCC2C(=O)N3Cc2ccc(S(C)(=O)=O)cc2)c1 (stereo not shown) [Example 101, N-(3-(5-(4-(methylsulfonyl)benzyl)-6-oxo-5,6,6a,7,9,10-hexahydro-[1,4]oxazino[3,4-h]pteridin-2-yl)phenyl)acetamide]	316
CCc1nnc(CN2C[C@@H]3COCCN3c3nc(-c4ccc(O)nc4)ncc32)o1 [Example 168, (R)-5-(5-((5-ethyl-1,3,4-oxadiazol-2-yl)methyl)-5,6,6a,7,9,10-hexahydro-[1,4]oxazino[3,4-h]pteridin-2-yl)pyridin-2-ol]	> 10000
CCc1ccccc1N1C[C@@H]2COCCN2c2nc(-c3cccc4[nH]ccc34)ncc21 [Example 184, (R)-5-(2-ethyl-phenyl)-2-(1H-indol-4-yl)-5,6,6a,7,9,10-hexahydro-[1,4]oxazino[3,4-h]pteridine]	398
O=C(Cc1c(F)cccc1F)N1CC2COCCN2c2nc(-c3cccc4[nH]ccc34)ncc21 (stereo not shown) [Example 54]	501
COc1ccc2c(-c3ncc4c(n3)N3CCOCC3C(=O)N4Cc3ccc(S(C)(=O)=O)cc3)c[nH]c2c1 (stereo not shown) [Example 136, 2-(6-methoxy-1H-indol-3-yl)-5-(4-(methylsulfonyl)benzyl)-6a,7,9,10-tetrahydro-[1,4]oxazino[3,4-h]pteridin-6(5H)-one]	501
Cc1nnc(CN2C(=O)C3COCCN3c3nc(-n4c(C(F)F)nc5ccccc54)ncc32)o1 (stereo not shown) [Example 157, 2-(2-(difluoromethyl)-1H-benzo[d]imidazol-1-yl)-5-((5-methyl-1,3,4-oxadiazol-2-yl)methyl)-6a,7,9,10-tetrahydro-[1,4]oxazino[3,4-h]pteridin-6(5H)-one]	39.8
O=C1Nc2cnc(-c3cccc4[nH]ccc34)nc2N2CCOC[C@@H]12 (single isomer, unassigned) [Example 150]	5.01
c1cc(-c2ncc3c(n2)N2CCOC[C@H]2CN3Cc2cnco2)c2cc[nH]c2c1 [Example 185, (R)-2-(1H-indol-4-yl)-5-(oxazol-5-ylmethyl)-5,6,6a,7,9,10-hexahydro-[1,4]oxazino[3,4-h]pteridine]	10
O=C(CN1C[C@@H]2COCCN2c2nc(-c3cccc4[nH]ccc34)ncc21)NCC1CCOCC1 [Example 73, (R)-2-(2-(1H-indol-4-yl)-6a,7,9,10-tetrahydro-[1,4]oxazino[3,4-h]pteridin-5(6H)-yl)-N-((tetrahydro-2H-pyran-4-yl)methyl)acetamide]	20
CS(=O)(=O)c1ccc(CN2CC3COCCN3c3nc(-c4ccc(F)c5[nH]ccc45)ncc32)cc1 (stereo not shown) [Example 17, 2-(7-fluoro-1H-indol-4-yl)-5-(4-(methylsulfonyl)benzyl)-5,6,6a,7,9,10-hexahydro-[1,4]oxazino[3,4-h]pteridine]	39.8
CCc1nnc(CN2C[C@@H]3COCCN3c3nc(-n4ccc5cnccc54)ncc32)o1 [Example 180, (R)-5-((5-ethyl-1,3,4-oxadiazol-2-yl)methyl)-2-(1H-pyrrolo[3,2-c]pyridin-1-yl)-5,6,6a,7,9,10-hexahydro-[1,4]oxazino[3,4-h]pteridine]	398
CC(C)(C#N)NC(=O)CN1C[C@@H]2COCCN2c2nc(-c3cccc4[nH]ccc34)ncc21 [Example 208, (R)-2-(2-(1H-indol-4-yl)-6a,7,9,10-tetrahydro-[1,4]oxazino[3,4-h]pteridin-5(6H)-yl)-N-(2-cyanopropan-2-yl)acetamide]	398
CC(=O)Nc1ccc(-c2ncc3c(n2)N2CCOCC2C(=O)N3Cc2ccc(S(C)(=O)=O)cc2)cc1 (stereo not shown) [Example 112, N-(4-(5-(4-(methylsulfonyl)benzyl)-6-oxo-5,6,6a,7,9,10-hexahydro-[1,4]oxazino[3,4-h]pteridin-2-yl)phenyl)acetamide]	31.6
CS(=O)(=O)c1ccc(CN2C(=O)C3COCCN3c3nc(-c4cccc(S(=O)(=O)NC5CC5)c4)ncc32)cc1 (stereo not shown) [Example 116, N-cyclopropyl-3-(5-(4-(methylsulfonyl)benzyl)-6-oxo-5,6,6a,7,9,10-hexahydro-[1,4]oxazino[3,4-h]pteridin-2-yl)benzenesulfonamide]	1580
